Where “and” joins values, the source holds several entries; their conditions need not be identical. Equal entries are not always repeated.
How the values were obtained:
[1] = Cytotoxicity MTT assay, MDCK normal cell line; format: cell-based; settings: dog, MDCK cells (normal cell line), read-out: Cytotoxic activity CC50
Experimental: (§1) Three types of cancer cell lines obtained from the American Type Culture Collection (ATCC) were cultured: two oral-laryngeal cancer cell lines, nasopharynx carcinoma (KB, ATCC-CCL-17) and laryngeal carcinoma (Hep-2, ATCC-CCL-23); two cervix-uterine cancer cell lines, cervix adenocarcinoma (HeLa, ATCC-CCL-2) and cervix squamous carcinoma (SiHa, ATCC-HTB-35); and two prostate cancer cell lines, prostate carcinoma (DU-145, ATCC-HTB-81) and prostate adenocarcinoma (PC-3, ATCC-CRL-1435); along with one normal cell line (MDCK, ATCC-CCL-34). The cells were cultured in sterile Costar T75 flasks containing DMEM (Gibco, Hong Kong, China), supplemented with fetal bovine serum (10%, v/v), 100 U/mL penicillin G, and […] streptomycin at 37 °C in an atmosphere of 5% CO2 (95% humidity). At 70%–80% confluence, cells were detached from the cultured flask by treatment with 0.05% trypsin-EDTA (Gibco), and a suspension of 5 × 10^4 cells/mL of viable cells was seeded in a 96-well microtiter plate (Costar, Washington, DC, USA) and incubated. Cytotoxicity was assessed by the MTT assay as previously described by Rahman. When cells reached 90% confluence in a microtiter plate, the DMEM was replaced with fresh medium and cells were incubated with compounds at various concentrations. […] The medium was aspirated, and the formazan product was solubilized with acidified isopropanol (0.4 N HCl). The amount of MTT-formazan is directly proportional to the number of living cells and was determined by measuring the optical density (OD) at 590 nm using a bioassay reader (Bio-Rad). All determinations were performed in triplicate. The cytotoxic and antiproliferative activities of tested compounds were calculated as the percentage of cells killed or the percentage of inhibition of cell proliferation, respectively, using the equation: growth inhibition (%) = (ODcontrol − ODsample/ODcontrol) × 100. […] In addition, the level of cytotoxicity on normal cells was evaluated by determining the selectivity index (SI) of each compound, which is calculated as the ratio of cytotoxicity or reduced cell growth on normal cells to cancer cells (SI = normal cells/cancer cells).

[2] = Cytotoxicity MTT assay, Hep-2 laryngeal carcinoma; format: cell-based, human; settings: dog MDCK normal cells versus Hep-2 laryngeal carcinoma cells; CC50 MDCK normal cells / Hep-2; read-out: Selectivity index (SI) of cytotoxic activity
Experimental: as §1

[3] = system: Hep-2; assay: Cytotoxicity MTT assay, Hep-2 laryngeal carcinoma; format: cell-based, human; settings: Homo sapiens; Hep-2, MTT, 72 h; read-out: Cytotoxic activity CC50
Experimental: as §1

[4] = Cytotoxicity MTT assay, KB nasopharynx carcinoma; format: cell-based, human; settings: human, MDCK normal cells versus KB nasopharynx carcinoma cells; CC50 MDCK normal cells / KB; read-out: Selectivity index (SI) of cytotoxic activity
Experimental: as §1

[5] = system: KB; assay: Cytotoxicity MTT assay, KB nasopharynx carcinoma; format: cell-based, human; settings: Homo sapiens; KB, MTT, 72 h; read-out: Cytotoxic activity CC50
Experimental: as §1

[6] = Cytotoxicity MTT assay, HeLa cervix adenocarcinoma; format: cell-based, human; settings: human, MDCK normal cells versus HeLa cervix adenocarcinoma cells; CC50 MDCK normal cells / HeLa; read-out: Selectivity index (SI) of cytotoxic activity
Experimental: as §1

[7] = system: HeLa; assay: Cytotoxicity MTT assay, HeLa cervix adenocarcinoma; format: cell-based, human; settings: Homo sapiens; HeLa, MTT, 72 h; read-out: Cytotoxic activity CC50
Experimental: as §1

[8] = Cytotoxicity MTT assay, SiHa cervix squamous carcinoma; format: cell-based, human; settings: human; CC50 MDCK normal cells / SiHa; read-out: Selectivity index (SI) of cytotoxic activity
Experimental: as §1

[9] = system: SiHa; assay: as above; format: cell-based, human; settings: Homo sapiens; SiHa, MTT, 72 h; read-out: Cytotoxic activity CC50
Experimental: as §1

[10] = Cytotoxicity MTT assay, DU-145 prostate carcinoma; format: cell-based, human; settings: human, MDCK normal cells versus DU-145 prostate carcinoma cells; CC50 MDCK normal cells / DU-145; read-out: Selectivity index (SI) of cytotoxic activity
Experimental: as §1

[11] = system: DU-145; assay: Cytotoxicity MTT assay, DU-145 prostate carcinoma; format: cell-based, human; settings: Homo sapiens; DU-145, MTT, 72 h; read-out: Cytotoxic activity CC50
Experimental: as §1

[12] = Cytotoxicity MTT assay, PC-3 prostate adenocarcinoma; format: cell-based, human; settings: human, MDCK normal cells versus PC-3 prostate adenocarcinoma cells; CC50 MDCK normal cells / PC-3; read-out: Selectivity index (SI) of cytotoxic activity
Experimental: as §1

[13] = system: PC-3; assay: as above; format: cell-based, human; settings: Homo sapiens; PC-3, MTT, 72 h; read-out: Cytotoxic activity CC50
Experimental: as §1

[14] = system: MDCK; assay: Antiproliferative sulforhodamine B assay, MDCK normal cell line; format: cell-based; settings: Canis lupus familiaris, SRB, 48 h
Experimental: (§2) Three types of cancer cell lines obtained from the American Type Culture Collection (ATCC) were cultured: two oral-laryngeal cancer cell lines, nasopharynx carcinoma (KB, ATCC-CCL-17) and laryngeal carcinoma (Hep-2, ATCC-CCL-23); two cervix-uterine cancer cell lines, cervix adenocarcinoma (HeLa, ATCC-CCL-2) and cervix squamous carcinoma (SiHa, ATCC-HTB-35); and two prostate cancer cell lines, prostate carcinoma (DU-145, ATCC-HTB-81) and prostate adenocarcinoma (PC-3, ATCC-CRL-1435); along with one normal cell line (MDCK, ATCC-CCL-34). The cells were cultured in sterile Costar T75 flasks containing DMEM (Gibco, Hong Kong, China), supplemented with fetal bovine serum (10%, v/v), 100 U/mL penicillin G, and […] streptomycin at 37 °C in an atmosphere of 5% CO2 (95% humidity). At 70%–80% confluence, cells were detached from the cultured flask by treatment with 0.05% trypsin-EDTA (Gibco), and a suspension of 5 × 10^4 cells/mL of viable cells was seeded in a 96-well microtiter plate (Costar, Washington, DC, USA) and incubated.
(§3) The growth inhibition of cancer cells was evaluated by the sulforhodamine B method. When cells reached 70% confluence in a microtiter plate, the medium was replaced with DMEM 5% FBS and samples at various concentrations. After 48 h, the medium was discarded, and cells were fixed by adding 50 μL of 10% trichloroacetic acid (TCA, Sigma-Aldrich Chemical, St. Louis, MO, USA). The cells were then incubated at 4 °C for 30 min; TCA was drained off, and the plates were left to dry. Then, 50 μL of SRB stain (10 mg of 1% acetic acid, Sigma) were added to each well for 30 min. Finally, the plates were washed four times with 1% acetic acid (100 μL). The OD was measured at 540 nm using an ELISA reader (Bio-Rad). Docetaxel was used as a positive control, whereas cells incubated only with 0.05% of DMSO were used as a negative control. All determinations were performed in triplicate.
(§4) The cytotoxic and antiproliferative activities of tested compounds were calculated as the percentage of cells killed or the percentage of inhibition of cell proliferation, respectively, using the equation: growth inhibition (%) = (ODcontrol − ODsample/ODcontrol) × 100. […] In addition, the level of cytotoxicity on normal cells was evaluated by determining the selectivity index (SI) of each compound, which is calculated as the ratio of cytotoxicity or reduced cell growth on normal cells to cancer cells (SI = normal cells/cancer cells). It is generally considered that biological efficacy is not due to general toxicity when SI ≥ 10 [17].

[15] = system: Hep-2; assay: Antiproliferative sulforhodamine B assay, Hep-2; format: cell-based, human; settings: for IC50: Homo sapiens, Hep-2, SRB, 48 h
Experimental: as §2, §3, §4

[16] = system: KB; assay: Antiproliferative sulforhodamine B assay, KB; format: cell-based, human; settings: for IC50: Homo sapiens, KB, SRB, 48 h; for Selectivity index (SI) of antiproliferative activity: IC50 MDCK normal cells / KB
Experimental: as §2, §3, §4

[17] = system: HeLa; assay: Antiproliferative sulforhodamine B assay, HeLa; format: cell-based, human; settings: for IC50: Homo sapiens, HeLa, SRB, 48 h
Experimental: as §2, §3, §4

[18] = system: SiHa; assay: Antiproliferative sulforhodamine B assay, SiHa; format: cell-based, human; settings: for IC50: Homo sapiens, SiHa, SRB, 48 h; for Selectivity index (SI) of antiproliferative activity: IC50 MDCK normal cells / SiHa
Experimental: as §2, §3, §4

[19] = system: DU-145; assay: Antiproliferative sulforhodamine B assay, DU-145; format: cell-based, human; settings: for IC50: Homo sapiens, DU-145, SRB, 48 h
Experimental: as §2, §3, §4

[20] = system: PC-3; assay: Antiproliferative sulforhodamine B assay, PC-3; format: cell-based; settings: Homo sapiens; PC-3, SRB, 48 h
Experimental: as §2, §3, §4

[21] = system: tested cell lines; assay: Cytotoxicity and antiproliferative bioassays, whole panel of tested cell lines; format: cell-based; settings: all tested cell lines
Experimental: as §2, with “At 70%–80% confluence, cells were detached from the cultured flask by treatment with 0.05% trypsin-EDTA (Gibco), and a suspension of 5 × 10^4 cells/mL of viable cells was seeded in a 96-well microtiter plate (Costar, Washington, DC, USA) and incubated.” left out
Cytotoxicity was assessed by the MTT assay as previously described by Rahman. […] The amount of MTT-formazan is directly proportional to the number of living cells and was determined by measuring the optical density (OD) at 590 nm using a bioassay reader (Bio-Rad). […]
The growth inhibition of cancer cells was evaluated by the sulforhodamine B method. […] The OD was measured at 540 nm using an ELISA reader (Bio-Rad). […]

SMILES	CC50 at 72 h [1]	selectivity ratio at 72 h [2]	CC50 [3]	selectivity ratio at 72 h [4]	CC50 [5]	selectivity ratio at 72 h [6]	CC50 [7]	selectivity ratio at 72 h [8]	CC50 [9]	selectivity ratio at 72 h [10]	CC50 [11]	selectivity ratio at 72 h [12]	CC50 [13]	IC50 [14]	IC50 [15]	IC50 [16]	IC50 [17]	IC50 [18]	IC50 [19]	IC50 [20]	also measured
CC(=O)O[C@@]12CO[C@@H]1C[C@H](O)[C@@]1(C)C(=O)[C@H](O)C3=C(C)[C@@H](OC(=O)[C@H](O)[C@@H](NC(=O)OC(C)(C)C)c4ccccc4)C[C@@](O)([C@@H](OC(=O)c4ccccc4)[C@H]21)C3(C)C [Docetaxel, reference compound]	1.1 µg/mL and 1.4 µM	14	0.07 µg/mL and 100 nM	4.6	0.2 µg/mL and 300 nM	5.6	0.19 µg/mL and 250 nM	6.3	0.17 µg/mL and 220 nM	140	0.007 µg/mL and 10 nM	14	0.07 µg/mL and 100 nM	0.11 µg/mL and 140 nM	0.05 µg/mL and 70 nM	0.04 µg/mL and 60 nM	0.03 µg/mL and 40 nM	0.07 µg/mL and 100 nM	0.01 µg/mL and 20 nM	0.007 µg/mL and 10 nM	Selectivity index (SI) of antiproliferative activity ([15]; IC50 MDCK normal cells / Hep-2): 2.0; Selectivity index (SI) of antiproliferative activity [16]: 2.3; Selectivity index (SI) of antiproliferative activity ([17]; IC50 MDCK normal cells / HeLa): 3.5; Selectivity index (SI) of antiproliferative activity [18]: 1.4; Selectivity index (SI) of antiproliferative activity ([19]; IC50 MDCK normal cells / DU-145): 7
C=CC(C)(C)c1cc(C2COc3cc(O)ccc3C2)c(O)c(O)c1OC (stereo not drawn) [Compound 4, secundiflorol G]	29.7 µg/mL and 83.4 µM	7.6	3.9 µg/mL and 11 µM	5.5	5.3 µg/mL and 15 µM	3.6	8.1 µg/mL and 23 µM	2	14.7 µg/mL and 41.3 µM	1.3	21.5 µg/mL and 60.6 µM	1.8	16.5 µg/mL and 46.4 µM	25.4 µg/mL and 72 µM	> 100 µM	> 100 µM	> 100 µM	21.2 µg/mL and 60 µM	> 100 µM	> 100 µM	Selectivity index (SI) of antiproliferative activity [18]: 1.2
CC(C)=CCc1c(O)c(C(=O)/C=C/c2ccccc2)cc2c1OC(C)(C)C=C2 [Compound 1, spinochalcone C]	> 100 µg/mL		> 100 µg/mL		> 100 µg/mL		> 100 µg/mL		> 100 µg/mL		> 100 µg/mL		> 100 µg/mL	> 100 µM	> 100 µM	> 100 µM	> 100 µM	> 100 µM	> 100 µM	> 100 µM	Active concentration on tested cell lines (no activity to the maximum concentration) [21]: > 100 µM
CC(C)=CCc1cc(C(=O)/C=C/c2ccccc2)c(O)c(CC=C(C)C)c1O [Compound 2, spinochalcone A]	92.1 µg/mL and 245 µM		> 100 µg/mL		> 100 µg/mL		> 100 µg/mL		> 100 µg/mL	15	6.1 µg/mL and 16.3 µM	9.4	9.7 µg/mL and 26 µM	18.7 µg/mL and 50 µM	> 100 µM	6 µg/mL and 16 µM	> 100 µM	> 100 µM	> 100 µM	> 100 µM	Selectivity index (SI) of antiproliferative activity [16]: 3.1
